Source: patent publication US20210023029A1, “EDASALONEXENT DOSING REGIMEN FOR TREATING MUSCULAR DYSTROPHY” (Catabasis Pharmaceuticals, Inc., priority 2017, published 2021)
“Also recorded” adds a separate entry of the source.

Key:
[1] = system: boys with DMD; assay: MoveDMD trial: NSAA and timed function tests in boys with DMD; assay type: in vivo, human
Experimental: The MoveDMD trial (see FIG. 10) was designed to evaluate efficacy, safety/tolerability, pharmacokinetics (PK), pharmacodynamics (PD), and dose response of edasalonexent. The first phase portion of the MoveDMD trial was a 1-week study to evaluate the safety, PK, and PD at 33 and 67 mg/kg/day, given in 2 divided doses, and 100 mg/kg/day given in 3 divided doses. The second phase and the open-label extension (OLE) portions of the MoveDMD trial enrolled boys ages 4 through 7 with DMD. Phase 2 was a 12-week placebo-controlled study with two cohorts given 33 mg/kg twice daily (BID; 67 mg/kg/day; n=10) or 33 mg/kg three times daily (TID; 100 mg/kg/day; n=10), and a placebo cohort (n=10). Patients in the OLE continued with either dose regimen of edasalonexent. The North Star Ambulatory Assessment (NSAA) is a validated functional scale specifically designed for ambulant boys with DMD and measures overall function in young boys. […] The 10-meter walk/run, 4-stair climb, and time to stand are all timed tests used as a measure of function in boys with DMD. In each of these tests, as shown in FIGS. 15-17, the average rate of change of speed by study subjects in completing these physical tasks stabilized during the 60 week 100 mg/kg/day edasalonexent treatment period as compared with the rate of change during the off-treatment control period (36 weeks preceding the treatment period). All timed function test values stabilized during the treatment period.

[2] = MoveDMD trial: systemic exposure and Ctrough in DMD patients; assay type: in vivo, human; details: for daily exposure level versus level effective in inhibiting NF-κB in the adult study: boys with DMD
Experimental: The MoveDMD trial (see FIG. 10) was designed to evaluate efficacy, safety/tolerability, pharmacokinetics (PK), pharmacodynamics (PD), and dose response of edasalonexent. The first phase portion of the MoveDMD trial was a 1-week study to evaluate the safety, PK, and PD at 33 and 67 mg/kg/day, given in 2 divided doses, and 100 mg/kg/day given in 3 divided doses.
The second phase and the open-label extension (OLE) portions of the MoveDMD trial enrolled boys ages 4 through 7 with DMD. Phase 2 was a 12-week placebo-controlled study with two cohorts given 33 mg/kg twice daily (BID; 67 mg/kg/day; n=10) or 33 mg/kg three times daily (TID; 100 mg/kg/day; n=10), and a placebo cohort (n=10). Patients in the OLE continued with either dose regimen of edasalonexent.
The ratios of all 24 transcripts within a patient were also averaged, and are shown in FIG. 13 using symbols which represent this average from each individual patient. This average was graphed against the average edasalonexent Ctrough values within each dose cohort (shown on the x-axis in ng/ml).

[3] = system: mdx mice; details: cited from earlier work
[4] = system: NF-κB regulated and inflammation-related gene transcripts; assay: MoveDMD trial: NF-κB regulated and inflammation-related gene transcripts in whole blood (RNA sequencing); assay type: in vivo, human; details: one week treatment
Experimental: To determine the effects of a given edasalonexent dosing regimen on NF-κB inhibition, the expression levels of a number of NF-κB regulated and inflammation-related gene transcripts were measured in whole blood samples from DMD patients.
NF-kB regulated and inflammation-related genes were chosen from the Broad Institute's HALLMARK TNF/NF-kB gene set (Liberzon, et. al., (2015), Cell Systems, 1(6):417-425). Blood was drawn from DMD boys before and one-week after edasalonexent treatment, and collected into PAXgene RNA tubes (Qiagen). RNA was extracted and sequenced to directly measure the abundance of transcripts in whole blood for both time points in each patient, and the abundance of transcripts one-week post treatment was compared to pre-treatment values to determine the relative change in each of the selected transcripts. This ratio for each gene across all patients within a dose cohort was averaged and is shown in FIG. 12 by columns as average +/−SEM. A value less than 1 indicates a decrease in the transcripts after one-week treatment with edasalonexent.

[5] = 100 mg/kg/day, 60 weeks, compared to 36 week off-treatment control period

Structure (SMILES): CC/C=C\C/C=C\C/C=C\C/C=C\C/C=C\C/C=C\CCC(=O)NCCNC(=O)c1ccccc1O [edasalonexent, N-(2-[(4Z,7Z,10Z,13Z,16Z,19Z)-docosa-4,7,10,13,16,19-hexaenamido]ethyl)-2-hydroxybenzamide]
- muscle function and DMD disease progression ([1]; 33 mg/kg TID (100 mg/kg/day), 60 weeks, compared to off-treatment control period): clinically meaningful slowing of disease progression; also recorded: preservation of muscle function and slowing of DMD disease progression
- efficacy compared to the 133 mg/kg/day dosing regimen ([1]; 100 mg/kg/day versus 133 mg/kg/day (33/33/67 mg/kg)): equally effective
- 4-stair climb, average rate of change of speed [1, 5]: stabilized
- 10-meter walk/run, average rate of change of speed [1, 5]: stabilized
- North Star Ambulatory Assessment (NSAA) score, rate of change [1, 5]: stabilized
- time to stand, average rate of change of speed [1, 5]: stabilized
- treatment effects ([1]; boys affected by DMD enrolled at age 4-7, MoveDMD phase 2 trial and open-label extension): positive treatment effects
- daily exposure level versus level effective in inhibiting NF-κB in the adult study ([2]; 67 mg/kg/day (33 mg/kg twice daily)): comparable
- daily exposure level versus level effective in inhibiting NF-κB in the adult study ([2]; 100 mg/kg/day (33 mg/kg three times daily)): comparable
- mean Ctrough level ([2]; 100 mg/kg/day compared to 33 and 67 mg/kg/day, after one week): highest Ctrough level
- diaphragm function and cumulative run distance ([3]; long-term studies on mdx mice (Milne et al. 2014)): improved diaphragm function and increased cumulative run distance
- muscle regeneration, degeneration, inflammation and function ([3]; mdx mice (Milne et al. 2014)): enhance muscle regeneration, reduce muscle degeneration and inflammation, and preserve muscle function
- change in 24 NF-κB regulated and inflammation-related gene transcripts, Day 7 versus Day 1 ([4]; 33 mg/kg/day): decreases were generally not noted
- change in 24 NF-κB regulated and inflammation-related gene transcripts, Day 7 versus Day 1 ([4]; 67 mg/kg/day): not so pronounced
- change in 24 NF-κB regulated and inflammation-related gene transcripts, Day 7 versus Day 1 ([4]; 100 mg/kg/day): statistically significant decrease in all 24 transcripts; also recorded: most effective
